Test results as given in patent publication US20250304620A1, “ANTIMICROBIAL PEPTIDE AND APPLICATION THEREOF” (priority 2023, published 2025).
Marks after values point to notes of the source that are not given here. Non-standard residues stand in square brackets, D forms with d. PEG200 = polyethylene glycol 200, conjugated to the C-terminus; 2Nal = N[C@@H](Cc1ccc2ccccc2c1)C(=O)O

Assays:
[1] = tested on: Staphylococcus aureus (NRS 384); experiment: microbe, parasite or virus in culture; assay type: cell-based; conditions: Staphylococcus aureus (NRS 384)
In short: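 CLSI broth microdilution with serial twofold dilutions gave MICs against S. aureus NRS 384, with 5 parallel replicates. Levofloxacin and the AMP Cbf-K16 served as positive controls.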

[2] = tested on: Klebsiella pneumoniae ATCC 700603; assay type: cell-based
In short: (§1)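 Serial twofold peptide dilutions were set up in microdilution format per CLSI, MICs were read, and the procedure was repeated in 5 parallel runs.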

[3] = tested on: Serratia marcescens ATCC 29021; assay type: cell-based
In short: as §1

[4] = tested on: Salmonella typhimurium ATCC 14028; assay type: cell-based
In short: as §1

Candida utilis ATCC 9950 = assay type: cell-based
In short: as §1

[5] = tested on: Bacillus subtilis ATCC 6633; assay type: cell-based
In short: as §1

[6] = tested on: Candida glabrata ATCC 15126; assay type: cell-based
In short: as §1

[7] = tested on: Candida tropicalis ATCC 750; assay type: cell-based
In short: as §1

[8] = tested on: Candida albicans ATCC MYA-2876; assay type: cell-based
In short: as §1

[9] = tested on: Pseudomonas aeruginosa ATCC 27853; assay type: cell-based
In short: as §1

[10] = tested on: Staphylococcus aureus ATCC 25923; assay type: cell-based
In short: as §1

Candida krusei ATCC 6258 = assay type: cell-based
In short: as §1

[11] = tested on: Escherichia coli ATCC 25922; assay type: cell-based
In short: as §1

[12] = tested on: Trichophyton ATCC MYA-4438; assay type: cell-based
In short: as §1

Enterococcus ATCC 29212 = assay type: cell-based
In short: as §1

[13] = tested on: Corynebacterium ATCC 7715; assay type: cell-based
In short: as §1

[14] = tested on: Pseudomonas aeruginosa ATCC 27853; experiment: Injectable formulations on mice infected with peritonitis; assay type: in vivo, ICR mice; conditions: 1 mg/kg via tail vein, twice a day for 3 days, n = 10
In short: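 ICR mice of both sexes (10 per group) infected intraperitoneally with 0.2 mL P. aeruginosa ATCC 27853 at 1×10^9 CFU/mL. Injectable formulations dosed by body weight via tail vein twice daily for 3 days; deaths and survival time recorded over 14 d.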

[15] = tested on: Staphylococcus aureus (NRS 384); conditions: MIC vs Staphylococcus aureus (NRS 384) after trypsin treatment 1:10 (w/w), 37° C., 3 h
Description: Trypsin (250 U/mg, pH=8.0) and AMPs (LV-1 to LV-30) were mixed in a ratio of 1:10 (w/w) and added to a reaction buffer (0.2 M sodium phosphate, 1 mM CaCl2), pH 7.5), and then incubated at 37° C. for 3 h.

[16] = tested on: Escherichia coli ATCC 25922; experiment: Oral formulations on mice with systemic bacterial infection; assay type: in vivo, ICR mice; conditions: 1 mg/kg gavage, three times a day for 7 days, n = 10
In short: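 ICR mice of both sexes, 10 per group, infected i.p. with 0.2 mL E. coli ATCC 25922 at 1×10^7 CFU/mL. Compounds gavaged by body weight immediately after infection, three times daily for 7 days; deaths and survival time recorded over 14 d observation.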

Ac-RKLLXRLKXRK-PEG200 [LV-26] (Ac-RKLL[2Nal]RLK[2Nal]RK-PEG200) [polyethylene glycol 200 conjugated to C-terminal; X=3-(2-naphthyl)-alanine]
MIC against Staphylococcus aureus (NRS 384) [1]: 1 µg/mL
MIC Klebsiella pneumoniae ATCC 700603 [2]: 4 µg/mL
MIC Serratia marcescens ATCC 29021 [3]: 8 µg/mL
MIC Salmonella typhimurium ATCC 14028 [4]: 2 µg/mL
MIC Candida utilis ATCC 9950 (Candida utilis ATCC 9950): 16 µg/mL
MIC Bacillus subtilis ATCC 6633 [5]: 4 µg/mL
MIC Candida glabrata ATCC 15126 [6]: 8 µg/mL
MIC Candida tropicalis ATCC 750 [7]: 8 µg/mL
MIC Candida albicans ATCC MYA-2876 [8]: 8 µg/mL
MIC Pseudomonas aeruginosa ATCC 27853 [9]: 4 µg/mL
MIC Staphylococcus aureus ATCC 25923 [10]: 1 µg/mL
MIC Candida krusei ATCC 6258 (Candida krusei ATCC 6258): 4 µg/mL
MIC Escherichia coli ATCC 25922 [11]: 2 µg/mL
MIC Trichophyton ATCC MYA-4438 [12]: 16 µg/mL
MIC Enterococcus ATCC 29212 (Enterococcus ATCC 29212): 8 µg/mL
MIC Corynebacterium ATCC 7715 [13]: 2 µg/mL
Number of mice that died on each day after infection: day 1 [14]: 1 Mouse
Number of mice that died on each day after infection: day 2 [14]: 1 Mouse
Number of mice that died on each day after infection: day 3 [14]: 1 Mouse
Number of mice that died on each day after infection: day 4 [14]: 1 Mouse
Number of mice that died on each day after infection: day 5 [14]: 1 Mouse
Average survival times (Days) ([14]; observed for 14 d): 8.5** Days
Trypsin MIC [15]: 1 µg/mL
Number of mice that died on each day after infection: day 4 [16]: 2 Mouse
Number of mice that died on each day after infection: day 5 [16]: 1 Mouse
Number of mice that died on each day after infection: day 6 [16]: 0 Mouse
Number of mice that died on each day after infection: day 7 [16]: 1 Mouse
Number of mice that died on each day after infection: day 8 [16]: 1 Mouse
Average survival times (Days) ([16]; observed for 14 d): 9.8** Days
